{"source": "patent US9446039B2", "about": "“Aminoheteroaryl compounds as MTH1 inhibitors” (CEMM—FORSCHUNGSZENTRUM FÜR MOLEKULARE MEDIZIN GMBH, priority 2012, dated 2016)", "assay_type_in_all_cases": "binding", "key": {"[1]": {"molecular_target": "SW480 colon carcinoma cells lysate proteins (Homo sapiens, UniProt O43707)", "sequence (O43707 whole entry)": "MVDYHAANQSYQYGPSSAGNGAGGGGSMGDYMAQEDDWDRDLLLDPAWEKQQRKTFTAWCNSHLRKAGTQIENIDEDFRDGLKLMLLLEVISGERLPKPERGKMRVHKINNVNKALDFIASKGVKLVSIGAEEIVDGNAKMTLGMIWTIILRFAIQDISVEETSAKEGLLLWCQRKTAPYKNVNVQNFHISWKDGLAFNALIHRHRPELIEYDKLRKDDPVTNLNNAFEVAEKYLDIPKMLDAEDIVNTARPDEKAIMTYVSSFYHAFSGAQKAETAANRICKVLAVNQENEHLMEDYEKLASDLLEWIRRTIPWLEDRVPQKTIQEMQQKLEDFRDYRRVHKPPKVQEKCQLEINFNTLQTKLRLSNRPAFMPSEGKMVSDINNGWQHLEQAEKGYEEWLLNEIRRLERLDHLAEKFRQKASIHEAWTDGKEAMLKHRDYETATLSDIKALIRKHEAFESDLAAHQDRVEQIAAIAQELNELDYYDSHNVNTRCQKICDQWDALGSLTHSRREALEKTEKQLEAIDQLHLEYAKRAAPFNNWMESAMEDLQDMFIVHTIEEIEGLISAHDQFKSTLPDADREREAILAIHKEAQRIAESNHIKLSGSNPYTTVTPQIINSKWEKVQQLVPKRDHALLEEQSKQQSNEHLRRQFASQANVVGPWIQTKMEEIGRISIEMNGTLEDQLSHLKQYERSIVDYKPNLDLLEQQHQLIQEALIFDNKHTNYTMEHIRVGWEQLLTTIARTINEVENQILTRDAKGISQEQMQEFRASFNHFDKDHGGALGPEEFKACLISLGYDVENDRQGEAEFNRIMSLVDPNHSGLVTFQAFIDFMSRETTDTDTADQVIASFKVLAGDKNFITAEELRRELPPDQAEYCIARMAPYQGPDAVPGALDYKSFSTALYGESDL", "conditions": "PreyGene ACTN4"}, "[2]": {"molecular_target": "SW480 colon carcinoma cells lysate proteins (Homo sapiens, UniProt P68363)", "sequence (P68363 whole entry)": "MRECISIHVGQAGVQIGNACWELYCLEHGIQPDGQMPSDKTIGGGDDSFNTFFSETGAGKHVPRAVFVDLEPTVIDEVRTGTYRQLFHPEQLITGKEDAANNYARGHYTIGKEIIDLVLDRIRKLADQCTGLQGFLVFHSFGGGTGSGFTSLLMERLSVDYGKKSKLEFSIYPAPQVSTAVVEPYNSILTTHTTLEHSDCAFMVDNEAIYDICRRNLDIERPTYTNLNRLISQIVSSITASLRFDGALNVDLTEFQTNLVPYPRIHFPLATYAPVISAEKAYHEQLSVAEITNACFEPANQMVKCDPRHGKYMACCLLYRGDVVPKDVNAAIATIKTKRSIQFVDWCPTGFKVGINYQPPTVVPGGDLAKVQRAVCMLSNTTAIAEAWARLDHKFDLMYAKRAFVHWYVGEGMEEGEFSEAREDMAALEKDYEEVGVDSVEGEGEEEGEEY", "conditions": "PreyGene TUBA1B; SW480 cells"}, "[3]": {"molecular_target": "T1, SW480 colon carcinoma cells lysate proteins (Homo sapiens, UniProt P68402)", "T1 sequence (P68402 1-229)": "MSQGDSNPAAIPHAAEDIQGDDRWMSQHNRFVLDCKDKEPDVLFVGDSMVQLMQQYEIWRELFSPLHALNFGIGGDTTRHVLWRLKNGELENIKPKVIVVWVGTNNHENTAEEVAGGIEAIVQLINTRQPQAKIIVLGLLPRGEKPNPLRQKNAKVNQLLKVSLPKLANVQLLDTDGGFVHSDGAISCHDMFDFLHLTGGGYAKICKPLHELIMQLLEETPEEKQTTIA", "conditions": "PreyGene PAFAH1B2; SW480 cells"}, "[4]": {"molecular_target": "SW480 colon carcinoma cells lysate proteins (Homo sapiens, UniProt Q01105)", "sequence (Q01105 whole entry)": "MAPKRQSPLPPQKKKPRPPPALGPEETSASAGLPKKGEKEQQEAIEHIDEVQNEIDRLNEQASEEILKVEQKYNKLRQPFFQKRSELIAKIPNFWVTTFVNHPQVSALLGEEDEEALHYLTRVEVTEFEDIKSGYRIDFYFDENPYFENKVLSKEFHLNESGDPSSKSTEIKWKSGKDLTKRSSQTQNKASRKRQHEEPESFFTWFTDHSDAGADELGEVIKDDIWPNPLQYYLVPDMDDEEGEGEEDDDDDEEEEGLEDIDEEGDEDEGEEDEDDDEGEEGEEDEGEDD", "conditions": "PreyGene SET"}, "[5]": {"molecular_target": "T2, SW480 colon carcinoma cells lysate proteins (Homo sapiens, UniProt Q01844)", "T2 sequence (Q01844 1-656)": "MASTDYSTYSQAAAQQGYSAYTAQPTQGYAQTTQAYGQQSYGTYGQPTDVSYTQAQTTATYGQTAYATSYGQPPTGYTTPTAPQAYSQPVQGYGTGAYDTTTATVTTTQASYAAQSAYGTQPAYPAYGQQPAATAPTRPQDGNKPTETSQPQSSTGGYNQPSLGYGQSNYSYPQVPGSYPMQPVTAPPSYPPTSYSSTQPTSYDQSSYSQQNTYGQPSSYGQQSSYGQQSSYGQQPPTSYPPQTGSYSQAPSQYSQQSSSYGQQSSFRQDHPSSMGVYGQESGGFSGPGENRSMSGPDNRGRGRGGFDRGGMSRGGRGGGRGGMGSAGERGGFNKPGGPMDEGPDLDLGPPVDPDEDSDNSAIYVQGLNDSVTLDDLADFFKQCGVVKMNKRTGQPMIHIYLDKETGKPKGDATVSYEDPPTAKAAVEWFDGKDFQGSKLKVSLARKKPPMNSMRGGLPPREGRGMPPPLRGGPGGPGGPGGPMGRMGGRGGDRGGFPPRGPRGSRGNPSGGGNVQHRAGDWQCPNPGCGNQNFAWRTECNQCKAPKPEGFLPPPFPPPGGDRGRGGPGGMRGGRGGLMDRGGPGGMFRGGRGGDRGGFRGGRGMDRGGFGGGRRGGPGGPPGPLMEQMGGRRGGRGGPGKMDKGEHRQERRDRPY", "conditions": "PreyGene EWSR1; SW480 cells"}, "[6]": {"molecular_target": "SW480 colon carcinoma cells lysate proteins (Homo sapiens, UniProt Q13576)", "sequence (Q13576 whole entry)": "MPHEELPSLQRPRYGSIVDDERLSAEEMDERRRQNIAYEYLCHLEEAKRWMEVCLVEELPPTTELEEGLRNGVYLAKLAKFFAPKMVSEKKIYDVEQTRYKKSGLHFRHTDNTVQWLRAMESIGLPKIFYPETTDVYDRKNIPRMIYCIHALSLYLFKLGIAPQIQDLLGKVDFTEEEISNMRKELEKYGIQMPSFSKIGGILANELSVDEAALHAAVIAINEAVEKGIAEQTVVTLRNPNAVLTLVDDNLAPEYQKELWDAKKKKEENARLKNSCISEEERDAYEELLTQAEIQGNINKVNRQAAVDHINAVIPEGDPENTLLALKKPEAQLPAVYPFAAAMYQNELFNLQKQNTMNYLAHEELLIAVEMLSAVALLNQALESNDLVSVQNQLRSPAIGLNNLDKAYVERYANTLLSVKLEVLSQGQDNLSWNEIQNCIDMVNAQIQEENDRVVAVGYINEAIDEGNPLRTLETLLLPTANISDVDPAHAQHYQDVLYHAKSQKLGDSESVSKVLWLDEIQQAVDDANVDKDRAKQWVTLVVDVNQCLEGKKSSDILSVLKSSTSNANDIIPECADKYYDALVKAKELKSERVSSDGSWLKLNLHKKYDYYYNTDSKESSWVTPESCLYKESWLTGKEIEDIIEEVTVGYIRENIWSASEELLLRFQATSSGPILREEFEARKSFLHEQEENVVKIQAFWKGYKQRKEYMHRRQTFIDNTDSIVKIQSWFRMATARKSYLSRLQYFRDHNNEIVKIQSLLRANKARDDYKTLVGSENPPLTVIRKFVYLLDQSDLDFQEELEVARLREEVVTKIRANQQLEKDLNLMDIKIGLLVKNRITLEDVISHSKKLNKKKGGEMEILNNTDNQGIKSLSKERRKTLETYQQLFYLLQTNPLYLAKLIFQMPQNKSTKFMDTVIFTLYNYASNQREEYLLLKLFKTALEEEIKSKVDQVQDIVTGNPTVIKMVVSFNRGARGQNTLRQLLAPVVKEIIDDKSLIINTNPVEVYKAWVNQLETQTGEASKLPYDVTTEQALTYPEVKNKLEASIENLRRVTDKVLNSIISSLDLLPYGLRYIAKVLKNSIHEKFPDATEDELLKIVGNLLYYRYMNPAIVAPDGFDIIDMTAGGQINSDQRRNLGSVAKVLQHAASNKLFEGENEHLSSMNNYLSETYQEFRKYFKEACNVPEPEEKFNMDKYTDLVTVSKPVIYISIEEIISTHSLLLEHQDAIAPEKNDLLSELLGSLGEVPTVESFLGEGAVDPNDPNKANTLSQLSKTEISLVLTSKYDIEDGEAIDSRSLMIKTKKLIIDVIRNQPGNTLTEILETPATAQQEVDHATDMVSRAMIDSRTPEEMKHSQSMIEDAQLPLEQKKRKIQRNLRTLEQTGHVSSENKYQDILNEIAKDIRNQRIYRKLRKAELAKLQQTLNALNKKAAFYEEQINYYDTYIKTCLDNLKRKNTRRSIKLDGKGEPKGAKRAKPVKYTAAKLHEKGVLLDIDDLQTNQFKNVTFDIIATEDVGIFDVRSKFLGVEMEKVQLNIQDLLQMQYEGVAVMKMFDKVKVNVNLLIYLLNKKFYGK", "conditions": "PreyGene IQGAP2"}, "[7]": {"molecular_target": "SW480 colon carcinoma cells lysate proteins (Homo sapiens, UniProt Q13885)", "sequence (Q13885 whole entry)": "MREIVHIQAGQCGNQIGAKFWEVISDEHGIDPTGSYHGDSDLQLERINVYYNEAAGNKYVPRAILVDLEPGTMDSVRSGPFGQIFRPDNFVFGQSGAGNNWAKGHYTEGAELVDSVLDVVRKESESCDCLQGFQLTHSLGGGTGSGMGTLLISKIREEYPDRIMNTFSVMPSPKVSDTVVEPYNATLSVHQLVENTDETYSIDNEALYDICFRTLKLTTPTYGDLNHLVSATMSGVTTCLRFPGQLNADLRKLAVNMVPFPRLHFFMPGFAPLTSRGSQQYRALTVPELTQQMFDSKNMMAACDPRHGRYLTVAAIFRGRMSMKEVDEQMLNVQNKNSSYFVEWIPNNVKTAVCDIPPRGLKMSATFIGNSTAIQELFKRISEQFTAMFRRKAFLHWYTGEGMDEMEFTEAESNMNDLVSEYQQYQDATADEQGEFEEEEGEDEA", "conditions": "PreyGene TUBB2A; SW480 cells"}, "[8]": {"molecular_target": "T3, SW480 colon carcinoma cells lysate proteins (Homo sapiens, UniProt Q14498)", "T3 sequence (Q14498 1-530)": "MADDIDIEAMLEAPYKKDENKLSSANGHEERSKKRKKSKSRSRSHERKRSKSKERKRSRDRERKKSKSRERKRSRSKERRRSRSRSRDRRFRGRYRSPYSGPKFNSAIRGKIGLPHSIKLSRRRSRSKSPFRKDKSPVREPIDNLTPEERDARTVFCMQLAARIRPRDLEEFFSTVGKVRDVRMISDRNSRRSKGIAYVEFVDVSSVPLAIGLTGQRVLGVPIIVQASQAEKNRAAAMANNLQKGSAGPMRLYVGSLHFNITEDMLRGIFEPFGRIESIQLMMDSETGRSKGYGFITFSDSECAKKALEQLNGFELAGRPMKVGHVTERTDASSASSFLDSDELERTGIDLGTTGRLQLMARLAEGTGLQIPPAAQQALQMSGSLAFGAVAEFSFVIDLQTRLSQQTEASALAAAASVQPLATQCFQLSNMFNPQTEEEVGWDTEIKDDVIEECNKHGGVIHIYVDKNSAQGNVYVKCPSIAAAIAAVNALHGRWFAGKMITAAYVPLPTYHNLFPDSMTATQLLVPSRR", "conditions": "PreyGene RBM39"}, "[9]": {"molecular_target": "SW480 colon carcinoma cells lysate proteins (Homo sapiens, UniProt Q7Z406)", "conditions": "PreyGene MYH14; SW480 cells"}, "[10]": {"molecular_target": "SW480 colon carcinoma cells lysate proteins (Homo sapiens, UniProt Q9Y262)", "sequence (Q9Y262 whole entry)": "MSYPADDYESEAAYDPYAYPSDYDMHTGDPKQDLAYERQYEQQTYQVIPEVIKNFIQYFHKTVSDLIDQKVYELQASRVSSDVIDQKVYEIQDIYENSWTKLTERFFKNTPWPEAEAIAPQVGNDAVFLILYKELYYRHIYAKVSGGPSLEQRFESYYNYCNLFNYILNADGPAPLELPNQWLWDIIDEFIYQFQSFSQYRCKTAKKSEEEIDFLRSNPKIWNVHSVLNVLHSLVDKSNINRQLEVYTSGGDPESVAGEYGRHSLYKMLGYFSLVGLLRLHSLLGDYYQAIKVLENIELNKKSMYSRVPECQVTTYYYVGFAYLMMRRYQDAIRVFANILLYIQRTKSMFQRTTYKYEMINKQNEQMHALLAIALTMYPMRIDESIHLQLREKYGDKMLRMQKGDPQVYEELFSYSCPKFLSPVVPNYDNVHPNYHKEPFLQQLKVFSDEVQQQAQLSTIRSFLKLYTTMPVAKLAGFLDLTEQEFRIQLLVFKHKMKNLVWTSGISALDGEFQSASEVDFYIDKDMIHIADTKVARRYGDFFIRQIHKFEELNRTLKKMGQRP", "conditions": "PreyGene EIF3L; SW480 cells"}}, "data": [{"smiles": "C[C@H](Oc1cc(-c2cnn(C3CCNCC3)c2)cnc1N)c1c(Cl)ccc(F)c1Cl", "note": "[(5)-crizotinib]", "values": [{"measurement": "AvgP", "setting": "[1]", "value": 0.2923}, {"measurement": "SC.Exp. 1-1", "setting": "[1]", "value": 4}, {"measurement": "SC.Exp. 1-2", "setting": "[1]", "value": 4}, {"measurement": "SC.Exp. 2-1", "setting": "[1]", "value": 0}, {"measurement": "SC.Exp. 2-2", "setting": "[1]", "value": 0}, {"measurement": "Sum (SC.Exp.)", "setting": "[1]", "value": 8}, {"measurement": "AvgP", "setting": "[2]", "value": 0}, {"measurement": "SC.Exp. 1-1", "setting": "[2]", "value": 1}, {"measurement": "SC.Exp. 1-2", "setting": "[2]", "value": 1}, {"measurement": "SC.Exp. 2-1", "setting": "[2]", "value": 0}, {"measurement": "SC.Exp. 2-2", "setting": "[2]", "value": 0}, {"measurement": "SC.Exp. Sum", "setting": "[2]", "value": 2}, {"measurement": "AvgP", "setting": "[3]", "value": 0}, {"measurement": "SC.Exp. 1-1", "setting": "[3]", "value": 1}, {"measurement": "SC.Exp. 1-2", "setting": "[3]", "value": 1}, {"measurement": "SC.Exp. 2-1", "setting": "[3]", "value": 0}, {"measurement": "SC.Exp. 2-2", "setting": "[3]", "value": 0}, {"measurement": "SC.Exp. Sum", "setting": "[3]", "value": 2}, {"measurement": "AvgP", "setting": "[4]", "value": 0.4696}, {"measurement": "SC.Exp. 1-1", "setting": "[4]", "value": 3}, {"measurement": "SC.Exp. 1-2", "setting": "[4]", "value": 3}, {"measurement": "SC.Exp. 2-1", "setting": "[4]", "value": 4}, {"measurement": "SC.Exp. 2-2", "setting": "[4]", "value": 3}, {"measurement": "Sum (SC.Exp.)", "setting": "[4]", "value": 13}, {"measurement": "AvgP", "setting": "[5]", "value": 0}, {"measurement": "SC.Exp. 1-1", "setting": "[5]", "value": 0}, {"measurement": "SC.Exp. 1-2", "setting": "[5]", "value": 1}, {"measurement": "SC.Exp. 2-1", "setting": "[5]", "value": 0}, {"measurement": "SC.Exp. 2-2", "setting": "[5]", "value": 0}, {"measurement": "SC.Exp. Sum", "setting": "[5]", "value": 1}, {"measurement": "AvgP", "setting": "[6]", "value": 0.4584}, {"measurement": "SC.Exp. 1-1", "setting": "[6]", "value": 9}, {"measurement": "SC.Exp. 1-2", "setting": "[6]", "value": 9}, {"measurement": "SC.Exp. 2-1", "setting": "[6]", "value": 0}, {"measurement": "SC.Exp. 2-2", "setting": "[6]", "value": 0}, {"measurement": "Sum (SC.Exp.)", "setting": "[6]", "value": 18}, {"measurement": "AvgP", "setting": "[7]", "value": 0}, {"measurement": "SC.Exp. 1-1", "setting": "[7]", "value": 5}, {"measurement": "SC.Exp. 1-2", "setting": "[7]", "value": 4}, {"measurement": "SC.Exp. 2-1", "setting": "[7]", "value": 2}, {"measurement": "SC.Exp. 2-2", "setting": "[7]", "value": 2}, {"measurement": "SC.Exp. Sum", "setting": "[7]", "value": 13}, {"measurement": "AvgP", "setting": "[8]", "value": 0.4214}, {"measurement": "SC.Exp. 1-1", "setting": "[8]", "value": 4}, {"measurement": "SC.Exp. 1-2", "setting": "[8]", "value": 3}, {"measurement": "SC.Exp. 2-1", "setting": "[8]", "value": 0}, {"measurement": "SC.Exp. 2-2", "setting": "[8]", "value": 0}, {"measurement": "Sum (SC.Exp.)", "setting": "[8]", "value": 7}, {"measurement": "AvgP", "setting": "[9]", "value": 0}, {"measurement": "SC.Exp. 1-1", "setting": "[9]", "value": 1}, {"measurement": "SC.Exp. 1-2", "setting": "[9]", "value": 1}, {"measurement": "SC.Exp. 2-1", "setting": "[9]", "value": 0}, {"measurement": "SC.Exp. 2-2", "setting": "[9]", "value": 0}, {"measurement": "SC.Exp. Sum", "setting": "[9]", "value": 2}, {"measurement": "AvgP", "setting": "[10]", "value": 0}, {"measurement": "SC.Exp. 1-1", "setting": "[10]", "value": 9}, {"measurement": "SC.Exp. 1-2", "setting": "[10]", "value": 7}, {"measurement": "SC.Exp. 2-1", "setting": "[10]", "value": 6}, {"measurement": "SC.Exp. 2-2", "setting": "[10]", "value": 4}, {"measurement": "SC.Exp. Sum", "setting": "[10]", "value": 26}]}]}
